Results on 18 compounds are retold here after patent US20230219965A1 (KSQ Therapeutics, Inc., priority 2020, published 2023).

Where two headings read alike, the source gives them in different places.

The nature of series [1]: ADME solubility determination in PBS at pH 2.0 and pH 7.4. The class given is physicochemical. The following applies: phosphate buffered saline, 25 °C, thermodynamic from solid. In a few lines: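 Dried 10 mM DMSO stock residues taken up in PBS pH 7.4 or pH 2.0, shaken 24 h at 25° C. After centrifugation, supernatant quantified by LC-MS/MS against a standard of known concentration, with a dilution factor applied.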

A short description of series [2]: Liver microsomal metabolic stability, rat liver microsomes (RLM). Particulars: rat, liver microsomes, t1/2 (min) in RLM, 1 μM compound, 1 mg/mL microsomes, NADPH. Background: Liver microsomes are a subcellular fraction often used to study metabolism.
In series [3] the target is USP1/UAF1 enzyme (Homo sapiens, UniProt O94782). The experiment in a line: USP1/UAF1 deubiquitination assay (ubiquitin-rhodamine 110 substrate). In kind it is biochemical. Particulars: read-out: USP1 IC50 (Ub-Rho). In a few lines:
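0.05 nM USP1/UAF1 was preincubated 10 min with compounds (dose response from 10 μM) in 50 mM Tris-HCl pH 7.8, 0.5 mM EDTA, 0.01% BSA, 1 mM DTT, 0.01% Tween-20. 150 nM ubiquitin-rhodamine 110 started the reaction, read kinetically 30 min at Ex480/Em540; IC50 by four-parameter fit versus no-enzyme and DMSO controls.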

The nature of series [4]: Liver microsomal metabolic stability, human liver microsomes (HLM). The following applies: human, liver microsomes.
The test system of series [5] is Ub-PCNA levels in the nucleus of ES2 cells (USP1 activity). Description: ES2 Ub-PCNA immunofluorescence (IF) assay. In kind it is cell-based. The following applies: Homo sapiens, ES-2; ES2 cells, 3 hours, Ub-PCNA immunofluorescence; read-out: USP1 IC50 (Ub-PCNA). In a few lines: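 Cells plated overnight, then compound-treated for 3 h at 37° C (0.3% DMSO final), methanol-fixed and stained with anti-Ub-PCNA plus DAPI. Per-nucleus Ub-PCNA intensity imaged; cells above the 95% cutoff of untreated wells counted as positive, and percent positive cells used to derive AC50.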

[6] abbreviates: pH 2, aqueous buffer, PBS pH 2.0, 25° C., read-out: Solubility at pH 2.0.
Setting [7] is: pH 7.4, aqueous buffer, PBS pH 7.4, 25° C., read-out: Solubility at pH 7.4.

Chain of USP1/UAF1 enzyme (O94782 whole entry): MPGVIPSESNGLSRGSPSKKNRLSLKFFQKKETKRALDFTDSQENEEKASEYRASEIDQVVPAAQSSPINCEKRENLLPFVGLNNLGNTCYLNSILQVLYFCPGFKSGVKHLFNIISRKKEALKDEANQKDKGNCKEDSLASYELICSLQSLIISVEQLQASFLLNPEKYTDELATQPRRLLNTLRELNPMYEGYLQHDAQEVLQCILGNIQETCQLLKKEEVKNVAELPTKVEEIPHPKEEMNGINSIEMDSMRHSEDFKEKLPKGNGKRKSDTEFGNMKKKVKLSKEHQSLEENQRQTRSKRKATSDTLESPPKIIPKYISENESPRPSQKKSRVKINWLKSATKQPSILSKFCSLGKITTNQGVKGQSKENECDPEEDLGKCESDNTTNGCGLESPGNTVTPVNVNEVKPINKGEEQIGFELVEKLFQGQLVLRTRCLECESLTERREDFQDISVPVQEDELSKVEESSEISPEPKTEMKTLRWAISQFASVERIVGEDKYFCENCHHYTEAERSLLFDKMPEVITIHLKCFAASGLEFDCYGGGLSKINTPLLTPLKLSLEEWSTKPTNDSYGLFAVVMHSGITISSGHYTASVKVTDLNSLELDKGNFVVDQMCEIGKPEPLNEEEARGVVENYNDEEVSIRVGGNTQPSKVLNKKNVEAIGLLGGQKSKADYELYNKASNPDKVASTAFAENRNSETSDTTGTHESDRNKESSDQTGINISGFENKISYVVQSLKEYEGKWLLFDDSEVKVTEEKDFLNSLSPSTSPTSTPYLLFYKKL
Chain of USP1/UAF1 enzyme (Q8TAF3 whole entry partner): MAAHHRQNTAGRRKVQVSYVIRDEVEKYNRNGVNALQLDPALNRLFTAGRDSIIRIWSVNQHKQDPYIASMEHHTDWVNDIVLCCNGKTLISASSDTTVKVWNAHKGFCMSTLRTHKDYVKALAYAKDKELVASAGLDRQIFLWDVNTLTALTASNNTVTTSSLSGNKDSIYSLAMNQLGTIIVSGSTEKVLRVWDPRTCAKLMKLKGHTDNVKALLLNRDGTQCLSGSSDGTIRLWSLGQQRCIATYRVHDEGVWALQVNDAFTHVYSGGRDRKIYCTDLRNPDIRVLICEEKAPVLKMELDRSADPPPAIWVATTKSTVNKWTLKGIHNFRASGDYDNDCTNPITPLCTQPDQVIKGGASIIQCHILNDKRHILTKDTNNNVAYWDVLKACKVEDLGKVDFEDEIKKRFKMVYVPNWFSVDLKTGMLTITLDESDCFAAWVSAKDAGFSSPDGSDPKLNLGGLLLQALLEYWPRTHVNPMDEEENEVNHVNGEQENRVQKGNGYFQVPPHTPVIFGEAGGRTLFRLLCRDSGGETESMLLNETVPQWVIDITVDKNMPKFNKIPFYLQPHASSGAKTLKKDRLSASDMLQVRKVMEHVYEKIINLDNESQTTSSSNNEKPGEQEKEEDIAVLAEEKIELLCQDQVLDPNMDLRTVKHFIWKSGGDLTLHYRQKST

Take `CCn1cc(C(F)(F)F)nc1-c1ccc(CN2C(=O)CCn3nc(-c4c(OC)ncnc4C4CC4)cc32)cc1` [Example 71, 2-(4-cyclopropyl-6-methoxypyrimidin-5-yl)-4-(4-(1-ethyl-4-(trifluoromethyl)-1H-imidazol-2-yl)benzyl)-6,7-dihydropyrazolo[1,5-α]pyrimidin-5(4H)-one]: the solubility at 24 h in series [1] (setting [6]) and in series [1] (setting [7]) was < 10 µM throughout. Also, the half-life at 1 μM in series [2] and in series [4] was > 25 min each time. The IC50 in series [3] and in series [5] was < 100 nM in each case.
Regarding `COc1ncnc(C2CC2)c1-c1cc2n(n1)CCC(=O)N2Cc1ccc(-c2nc(C(F)(F)F)cn2C(C)C)cc1` [Example 72], the solubility at 24 h in series [1] (setting [6]) and in series [1] (setting [7]) was < 10 µM in each case. The half-life at 1 μM in series [2] and in series [4] was > 25 min each time. Also, the results for the IC50 in series [3] and in series [5] were < 100 nM and 100 to 500 nM, respectively.
For `Cc1cnn(C(C)C)c1-c1cc2n(n1)CCC(=O)N2Cc1ccc(-c2nc(C(F)(F)F)cn2C(C)C)cc1` [Example 73], the solubility at 24 h in series [1] (setting [6]) and in series [1] (setting [7]) was < 10 µM throughout. Besides, the half-life at 1 μM in series [2] and in series [4] was < 25 min throughout. Moreover, the IC50 (in general, the midpoint of a concentration-inhibition curve) in series [3] was < 100 nM; in series [5], 100 to 500 nM.
Turning to `COc1cccc(C)c1-c1cc2n(n1)CCCN2Cc1ccc(-c2nc(C(F)(F)F)cn2C)cc1` [Example 74, 2-(2-methoxy-6-methylphenyl)-4-(4-(1-methyl-4-(trifluoromethyl)-1H-imidazol-2-yl)benzyl)-4,5,6,7-tetrahydropyrazolo[1,5-α]pyrimidine], the figures for the solubility at 24 h in series [1] (setting [6]) and in series [1] (setting [7]) were ≥ 10 µM and < 10 µM, respectively. Also, the half-life at 1 μM in series [2] and in series [4] was < 25 min in each case. Further, the IC50 in series [3] was < 100 nM; in series [5], > 500 nM.
On to `COc1cccc(C)c1-c1cc2n(n1)CCC(=O)N2Cc1ccc(-c2nc(C(F)(F)F)cn2C)cc1` [Example 75, 2-(2-methoxy-6-methylphenyl)-4-(4-(1-methyl-4-(trifluoromethyl)-1H-imidazol-2-yl)benzyl)-6,7-dihydropyrazolo[1,5-α]pyrimidin-5(4H)-one], for which the solubility (usually the dissolved amount per volume that the medium holds) at 24 h is ≥ 10 µM in series [1] (setting [6]) and < 10 µM in series [1] (setting [7]). For the same compound, the half-life at 1 μM in series [2] and in series [4] was < 25 min throughout. Moreover, the IC50 in series [3] was < 100 nM; in series [5] it was 100 to 500 nM.
In the case of `CCn1cc(C(F)(F)F)nc1-c1ccc(CN2C(=O)CCn3nc(-c4c(OC)ncnc4C4CC4)cc32)cc1F` [Example 78], the solubility at 24 h in series [1] (setting [6]) and in series [1] (setting [7]) was < 10 µM in each case. The half-life at 1 μM in series [2] and in series [4] was > 25 min in each case. Further, the IC50 in series [3] and in series [5] was < 100 nM throughout.
Regarding `CC(C)n1ncc(Cl)c1-c1cc2n(n1)CCC(=O)N2Cc1ccc(-c2nc(C(F)(F)F)cn2CCF)cc1` [Example 79], the solubility at 24 h in series [1] (setting [6]) and in series [1] (setting [7]) was < 10 µM each time. The half-life at 1 μM in series [2] and in series [4] was > 25 min throughout. In addition, the IC50 in series [3] and in series [5] was < 100 nM throughout.
For `COc1ncnc(C2CC2)c1-c1cc2n(n1)CCC(=O)N2Cc1ccc(-n2nc(C(F)(F)F)cc2OC)cc1` [Example 80], the solubility at 24 h in series [1] (setting [6]) and in series [1] (setting [7]) was < 10 µM in each case. Moreover, the half-life at 1 μM in series [2] and in series [4] was > 25 min throughout. In addition, the IC50 in series [3] was < 100 nM; in series [5], 100 to 500 nM.
With `Cc1cc(C(F)(F)F)nn1-c1ccc(CN2C(=O)CCn3nc(-c4c(Cl)cnn4C(C)C)cc32)cc1` [Example 86], the solubility at 24 h in series [1] (setting [6]) and in series [1] (setting [7]) was < 10 µM each time. Further, the half-life at 1 μM in series [2] and in series [4] was > 25 min each time. For the same compound, the figures for the IC50 in series [3] and in series [5] were < 100 nM and 100 to 500 nM, respectively.
On to `CC(C)n1cc(C(F)(F)F)nc1-c1ccc(CN2C(=O)CCn3nc(-c4c(Cl)cnn4C(C)C)cc32)cc1` [Example 91], for which the solubility at 24 h in series [1] (setting [6]) and in series [1] (setting [7]) was < 10 µM each time. In addition, the half-life at 1 μM in series [2] and in series [4] was > 25 min throughout. The IC50 in series [3] and in series [5] was < 100 nM each time.
With `COc1cc(C(F)(F)F)nn1-c1ccc(CN2C(=O)CCn3nc(-c4c(Cl)cnn4C(C)C)cc32)cc1` [Example 96], the solubility at 24 h in series [1] (setting [6]) and in series [1] (setting [7]) was < 10 µM in each case. The half-life at 1 μM in series [2] and in series [4] was > 25 min throughout. Moreover, the IC50 in series [3] and in series [5] was < 100 nM throughout.
Consider `CCn1cc(C(F)(F)F)nc1-c1ccc(CN2C(=O)CCn3nc(-c4c(Cl)cnn4C(C)C)cc32)cc1` [Example 97], for which the solubility at 24 h in series [1] (setting [6]) and in series [1] (setting [7]) was < 10 µM each time. Also, the half-life at 1 μM in series [2] and in series [4] was > 25 min each time. Further, the IC50 in series [3] and in series [5] was < 100 nM each time.
As to `CC(C)n1ncc(Cl)c1-c1cc2n(n1)CCC(=O)N2Cc1ccc(-c2nc(C(F)(F)F)cn2C)cc1` [Example 98], the solubility at 24 h in series [1] (setting [6]) and in series [1] (setting [7]) was < 10 µM each time. The half-life at 1 μM in series [2] and in series [4] was > 25 min throughout. Besides, the IC50 in series [3] and in series [5] was < 100 nM each time.
As for `COc1ncnc(C2CC2)c1-c1cc2n(n1)CCC(=O)N2Cc1ccc(-n2nc(C(F)(F)F)cc2C)c(F)c1` [Example 103], the solubility at 24 h in series [1] (setting [6]) and in series [1] (setting [7]) was < 10 µM in each case. The half-life at 1 μM in series [2] and in series [4] was > 25 min in each case. The IC50 in series [3] was < 100 nM; in series [5], 100 to 500 nM.
Consider `Cc1cc(C(F)(F)F)nn1-c1ccc(CN2C(=O)CCn3nc(-c4c(Cl)cnn4C(C)C)cc32)cc1F` [Example 104], for which the solubility at 24 h in series [1] (setting [6]) and in series [1] (setting [7]) was < 10 µM throughout. Also, the half-life at 1 μM in series [2] and in series [4] was > 25 min in each case. Moreover, the IC50 in series [3] is < 100 nM; in series [5], 100 to 500 nM.
For the compound `COc1cc(CN2C(=O)CCn3nc(-c4c(OC)ncnc4C4CC4)cc32)ccc1-c1nc(C(F)(F)F)cn1C(C)C` [Example 108], the results for the solubility at 24 h in series [1] (setting [6]) and in series [1] (setting [7]) were ≥ 10 µM and < 10 µM, respectively. The half-life at 1 μM in series [2] and in series [4] was > 25 min each time. Also, the IC50 in series [3] and in series [5] was < 100 nM in each case.
`COc1cc(CN2C(=O)CCn3nc(-c4c(Cl)cnn4C(C)C)cc32)ccc1-c1nc(C(F)(F)F)cn1C(C)C` [Example 109]: the solubility at 24 h in series [1] (setting [6]) and in series [1] (setting [7]) was < 10 µM each time. Moreover, the half-life at 1 μM in series [2] and in series [4] was > 25 min in each case. The IC50 in series [3] and in series [5] was < 100 nM throughout.
As to `CCn1cc(C(F)(F)F)nc1-c1ccc(CN2C(=O)CCn3nc(-c4c(Cl)cnn4C(C)C)cc32)cn1` [Example 111], the solubility at 24 h in series [1] (setting [6]) and in series [1] (setting [7]) was < 10 µM each time. Moreover, the half-life at 1 μM in series [2] and in series [4] was > 25 min each time. Moreover, the half-inhibitory concentration (IC50) in series [3] was < 100 nM; in series [5], 100 to 500 nM.
